Laboratory results: patent US10864273B2, “Thiobase compounds for photodynamic therapy” (CASE WESTERN RESERVE UNIVERSITY, priority 2015, dated 2020)
Entries after “also recorded” stand apart in the source; their conditions may differ.

Assays:
[1] = Singlet oxygen quantum yield by phosphorescence at 1270 nm, thiouracil series; type: physicochemical
Protocol: Solutions of 4tUra, 2,4dtUra, and the singlet oxygen standard (phenalenone; ΦΔ=0.98) were prepared in acetonitrile, each with an absorbance of 0.3 at 355 nm in a 1×1 cm quartz cuvette. The solutions were purged with oxygen for 30 min, followed by the determination of quantum yields from back-toback measurements of the singlet oxygen phosphorescence intensity at 1270 nm. The O2-saturated solutions were excited at 355 nm (Spectra Physics GCR-150-30: 7 ns pulse width) and the phosphorescence at 1270 nm was detected with a NIR sensitive photomultiplier tube (H10330A-45, Hamamatsu).
The singlet oxygen (^1O2) quantum yields of 4tUra and 2,4dtUra were measured by monitoring the characteristic phosphorescence of ^1O2 at 1270 nm with nanosecond time resolution.

[2] = system: adenosine 5′-monophosphate (5′-AMP); assay: Photoreactivity with adenosine 5′-monophosphate upon 365 nm irradiation in N2-saturated buffer
Protocol: Aqueous phosphate-buffered saline solutions, pH 7.4, containing either 4tUra or 2,4dtUra were prepared with and without 5′-AMP and loaded into 1×1 cm septum-top quartz cuvettes. The concentrations of the thiouracil derivatives and 5′-AMP were […], respectively. These concentrations were chosen in order to favor the bimolecular photoreaction between the thiouracil derivative and 50-AMP, while simultaneously maintaining the absorbance of the solutions within the linear dynamic range limit of the UV-visible spectrophotometer used. All solutions were purged with ultrapure nitrogen for 30 min and kept under constant nitrogen flow throughout the irradiation period. An optical parametric amplifier (TOPAS, Quantronix/Light Conversion) pumped by our Libra laser system (described above) was used for monochromatic (±1 nm) irradiation of the samples. […] Absorbance changes in the thiouracil solutions, with and without 5′-AMP, were monitored periodically using UV-visible spectroscopy (Cary 100 Bio) during irradiation at 365 nm for up to 90 min and while stored in the dark for up to three and a half days.
In order to scrutinize the light-induced reactivity of these sensitizers toward biomolecules, aqueous phosphate-buffered saline solutions of either 4tUra or 2,4dtUra were prepared in the presence of the RNA monomer adenosine 5′-monophosphate (5′-AMP) at a 1:5 molar ratio. […] The experimental conditions were chosen in order to facilitate the extraction of relative photoreaction rates from the changes in the steady-state absorption spectra with irradiation time. […]

[3] = Steady-state molar absorptivity spectra, thiouracil series; type: physicochemical; details: 380 to 400 nm; based on molar absorptivity spectra
Protocol: Steady-state absorption spectra were measured using a Cary 100 Bio spectrometer. All absorption spectra were background corrected by subtracting the absorption of the neat solvent. Molar absorptivity coefficients were determined from the absorption spectra of serial dilutions of stock solutions with known concentrations.
An important property in the characterization of the photosensitizing potential of the thiouracil series is the determination of their ground-state molar absorptivity spectra. […] The maximum of the lowest-energy absorption band is shifted considerably further to the red (60 nm, 6734 cm^−1) upon sulfur substitution of the oxygen atom at the C4 position compared to when the substitution is made at the C2 position. […] In fact, based on the molar absorptivity spectra, the absorption efficiency of 2,4dtUra at nearvisible wavelengths (380 to 400 nm) is about 27-fold greater than that of 4tUra (see ESI† for details). The ability of these thiouracil derivatives to absorb longer wavelengths of light than uracil facilitates their selective excitation over the canonical DNA and RNA nucleobases. This photophysical property is essential for their prospective use in in vitro and in vivo photosensitizing applications.

[4] = Estimated photosensitization depth into tissue from molar absorptivity cutoff and penetration depth of light
From the text: FIG. 13 illustrates a plot showing molar absorptivity spectra of 4tUra and 2,4dtUra overlaid with the function of the wavelength-dependent penetration depth of light into unpigmented tissue. The ε cutoff is defined by the molar absorptivity of 4tUra at 365 nm; the excitation wavelength typically used in its photosensitization applications.
Importantly, many of the current applications employing 4tUra and other UVA photosensitizers (e.g. psoralen derivatives) use radiation at 365 nm as the excitation source. The use of longer UVA wavelengths reduces direct excitation of other biomolecules, thereby increasing photosensitization efficiency and minimizing unwanted side reactions. However, the requirement of using relatively high concentrations of the sensitizer and/or long irradiation times are two major drawbacks in the current use of 4tUra in photocrosslinking studies as well as in PUVA (psoralen+UVA) photochemotherapies. […] More importantly, 2,4dtUra enables the use of lower-energy excitation wavelengths, as long as 395 nm (see FIG. 13), considering a molar absorptivity cutoff criterion equal to that currently used for 4tUra (see ESI† for a more thorough justification of this cutoff criterion). In other words, the use of 2,4dtUra enables excitation at 395 nm while maintaining the same absorption efficiency and photoreactivity as that of 4tUra at 365 nm. […]

[5] = cited from earlier work
[6] = Femtosecond to microsecond transient absorption spectroscopy of the thiouracil series (intersystem crossing, triplet yield, triplet decay, triplet-triplet extinction)
From the text: Briefly, 800 nm, 100 fs fundamental pulses were generated with a Ti-Sapphire regenerative amplifier laser system (Libra-HE, Coherent, Inc.: 4.0 W, 1 kHz). The fundamental beam was used to produce pump wavelengths of 320, 335, and 350 nm via an optical parametric amplifier (TOPAS, Quantronix/Light Conversion). Unwanted wavelengths were removed from the pump beam using a reflective wavelength filter and a Glan-Taylor polarizer. A fraction of the remaining fundamental beam was focused into a continuously moving CaF2 plate (2 mm thick) to generate broadband white light probe pulses (320-700 nm). The intensity of the excitation beam was attenuated to 1 mJ per pulse at the sample position. The polarization of the pump beam was randomized before being focused into the sample to overlap with the white light continuum probe at a 3:1 beam diameter ratio. Pump-probe experiments were collected using a Helios spectrometer (Ultrafast Systems, LLC) and a home-made data acquisition software (LabView, National Instruments, Inc.).
Solutions of the 2tUra, 4tUra, and 2,4dtUra derivatives were prepared in aqueous phosphate-buffered saline at pH 7.4. […] Solutions were investigated in 2 mm optical path length quartz cells and the irradiated volume was continuously refreshed by stirring with a Teflon-coated magnetic stir bar. Contributions to the transient data from any putative photoproduct formation were prevented by replacing the solution with fresh stock solution every 5 scans, or before 6% sample degradation (as monitored by a decrease in the steady-state absorbance of the lowest-energy absorption band). The UVA excitation wavelength used was varied depending on the absorption spectrum of the specific thiouracil derivative investigated. For 2tUra, an excitation wavelength of 320 nm was used, whereas 2,4dtUra was excited at 335 and 350 nm, and 4tUra was excited at all three of these UVA wavelengths.
Decay of the triplet state of 4tUra and 2,4dtUra to the ground state was monitored using the same excitation and detection setups but probing with an electronically triggered broadband white light source (Eos, Ultrafast Systems, LLC) that has been conveniently integrated into the Helios spectrometer. This probe source has a spectral window from B375 to 800 nm, a time resolution of about 400 ps, and a temporal window of up to 120 ms. […] Data were collected with the solutions under a constant nitrogen flow, and exciting at 350 nm with 3 mJ per pulse for 10 min, corresponding to less than 5% degradation.
For each data set, between 50 and 100 traces were selected across the entire range of probe wavelengths and globally analyzed in Igor Pro 6.32A (WaveMetrics, Inc.). […] 83 The uncertainties reported for the triplet population lifetimes are twice the standard deviation from the average fitting of at least three independent datasets (i.e., recorded on three different days). Triplet-triplet absorption spectra were extracted from the global fitting analysis.

Sc1ccnc(S)n1 [2,4dtUra, 2,4-dithiouracil]
ΦΔ singlet oxygen quantum yield ([1]; O2-saturated acetonitrile, 355 nm excitation, phenalenone standard): 0.49±0.02
1O2 yield relative to uracil ([1]; excited to lowest-energy absorption band): 3.3 fold
1O2 yield ([1]; following UVA excitation): ca. 50%
photoreaction rate with 5′-AMP relative to 4tUra ([2]; 365 nm, same concentrations of reactants): approximately three times faster; also recorded: threefold greater; also recorded: threefold higher
photoreaction rate ([2]; with 5′-AMP, 1:5 molar ratio (24 and 120 mM), 365 nm irradiation, N2-saturated aqueous buffer pH 7.4): (1.2±0.2)×10^−9 M s^−1
absorption efficiency at near-visible wavelengths relative to 4tUra [3]: about 27 fold
longest excitation wavelength at molar absorptivity cutoff equal to that of 4tUra at 365 nm [4]: ≤ 395 nm
pKa [5]: 7.4
increase in rate of intersystem crossing going from 2tUra [6]: 1.6 fold
τISC intersystem crossing lifetime ([6]; aqueous phosphate-buffered saline solution, pH 7.4): 220±40 fs
κT triplet-state decay rate ([6]; aqueous phosphate-buffered saline solution, pH 7.4, 24 mM solutions, nitrogen-purged, 350 nm excitation): 4.3 ± 0.9 10^6 s^−1
intersystem crossing lifetime ([6]; aqueous phosphate-buffered saline, pH 5.4): 210±50 fs
triplet-triplet extinction coefficient ([6]; at 600 nm, singlet depletion method): 2500 ± 600 M⁻¹ cm⁻¹
